Experimental data reported in patent US20250170141A1, “MRGPRX2 MODULATORS AND RELATED METHODS OF TREATMENT” (Escient Pharmaceuticals, Inc., priority 2023, published 2025).

Target: T1, human MRGPRX2 (Homo sapiens, UniProt Q96LB1)
T1 construct: expressed in transfected cells; host or cells: CHO cells, stably transfected (G418 and Hygromycin B selection)
T1 sequence (Q96LB1 1-330): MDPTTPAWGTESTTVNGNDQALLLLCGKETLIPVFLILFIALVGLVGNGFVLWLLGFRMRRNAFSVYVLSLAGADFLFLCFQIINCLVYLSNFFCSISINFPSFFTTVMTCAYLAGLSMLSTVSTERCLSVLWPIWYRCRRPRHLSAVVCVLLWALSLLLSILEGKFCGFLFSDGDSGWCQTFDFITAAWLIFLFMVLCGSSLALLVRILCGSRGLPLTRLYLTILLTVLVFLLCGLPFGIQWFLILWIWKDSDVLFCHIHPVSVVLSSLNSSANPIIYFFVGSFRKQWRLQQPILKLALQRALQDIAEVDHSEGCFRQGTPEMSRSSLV
Assay: MRGPRX2 activity: IP-One Gq HTRF assay in CHO cells, antagonism versus 0.3 uM Cortistatin-14
Assay type: cell-based
Conditions: versus 0.3 uM Cortistatin-14 agonist, CHO cells expressing human MRGPRX2, read-out: MRGPRX2 Antagonist Activity
Description: CHO cells stably transfected to express human MRGPRX2 were maintained in an incubator at 37° C. with 5% CO2 and grown in F12 (HAM) media with 10% fetal bovine serum (FBS), 1% Glutamax, 1% penicillin/streptomycin, 800 μg/mL Geneticin (G418), and 300 μg/mL Hygromycin B.
Cells were plated in a 384-well assay plate at 20,000 cells per well in 12 μL of Opti-MEM and kept in an incubator overnight. On the day of the assay, compounds solubilized at 10 mM in DMSO were added as a 10-point curve (30 uM final top concentration with 1:3 serial dilutions) using a Tecan D300E digital dispenser. Agonists were diluted in assay buffer (final concentrations of 5.7 mM Tris-HCl, 43 mM NaCl, 50 mM LiCl, pH=8) and 2 μL of the agonist Cortistatin-14 (CPC Scientific, catalog CORT-002) are added to each well. Final concentrations of agonists were 0.3 μM Cortistatin. Final concentrations of DMSO were kept consistent across the plate. Plates were incubated in the dark for 1 h at 37° C. and then for 1 h at room temperature. IP-1 standards and HTRF detection reagents were added according to the IP-One—Gq Kit purchased from Cisbio (part number 62IPAPEJ) and incubated in the dark for 1 h at room temperature. The plate was read on a Molecular Devices SpectraMax iD5 plate reader. The HTRF ratio was calculated from the raw data and graphed using GraphPad Prism to calculate an IC50 value for each compound.
The activity ranges are denoted as follows: “+++++” denotes antagonist activity <100 nM; “++++” denotes antagonist activity between 100 and 500 nM; “+++” denotes activity between 501 and 1000 nM; “++” denotes activity between 1001 and 2500 nM; and “+” denotes activity >2500 nM.

Compared with `O=S1(=O)N=C(NCc2ccc(F)cc2F)Nc2c1cc(F)c(F)c2Cc1ccccc1Cl` [Compound 4-8, 5-(2-chlorobenzyl)-3-((2,4-difluorobenzyl)amino)-6,7-difluoro-4H-benzo[e][1,2,4]thiadiazine 1,1-dioxide], `O=S1(=O)N=C(Nc2ccc(F)cc2)Nc2c1cc(F)c(F)c2Cc1ccccc1Cl` [Compound 4-19, 5-(2-chlorobenzyl)-6,7-difluoro-3-((4-fluorophenyl)amino)-4H-benzo[e][1,2,4]thiadiazine 1,1-dioxide] is higher in IC50: 100 to 500 nM for the first, 501 to 1000 nM for the second. The first is the more potent here.

`CC(C)(F)CNC1=NS(=O)(=O)c2cccc(Oc3ccccc3Cl)c2N1` [Compound 1-244, 5-(2-chlorophenoxy)-3-((2-fluoro-2-methylpropyl)amino)-4H-benzo[e][1,2,4]thiadiazine 1,1-dioxide] and `COCCNC1=NS(=O)(=O)c2cccc(C(=O)c3ccccc3Cl)c2N1` [Compound 16-3, (2-chlorophenyl)(3-((2-methoxyethyl)amino)-1,1-dioxido-4H-benzo[e][1,2,4]thiadiazin-5-yl)methanone] fall in the same range of IC50: 1000 to 2500 nM for the first, 1000 to 2500 nM for the second.

`Cc1cccc(C)c1Cc1cccc2c1NC(NCc1ccccc1F)=NS2(=O)=O` [Compound 6-17, 5-(2,6-dimethylbenzyl)-3-((2-fluorobenzyl)amino)-4H-benzo[e][1,2,4]thiadiazine 1,1-dioxide] and `Cc1cccc(CNC2=NS(=O)(=O)c3cccc(Cc4ccccc4Cl)c3N2)c1` [Compound 12-20, 5-(2-chlorobenzyl)-3-((3-methylbenzyl)amino)-4H-benzo[e][1,2,4]thiadiazine 1,1-dioxide] cannot be ordered by IC50: < 100 nM for the first, < 100 nM for the second.

`O=S1(=O)N=C(NCc2ncccc2C(F)(F)F)Nc2c(Cc3ccccc3Cl)cccc21` [Compound 12-29, 5-(2-chlorobenzyl)-3-(((3-(trifluoromethyl)pyridin-2-yl)methyl)amino)-4H-benzo[e][1,2,4]thiadiazine 1,1-dioxide] and `O=S1(=O)N=C(NCc2ccncc2Cl)Nc2c(Cc3ccccc3Cl)cccc21` [Compound 12-17, 5-(2-chlorobenzyl)-3-(((3-chloropyridin-4-yl)methyl)amino)-4H-benzo[e][1,2,4]thiadiazine 1,1-dioxide] cannot be ordered by IC50: < 100 nM for the first, < 100 nM for the second.

`O=S1(=O)N=C(NCc2ncccc2F)Nc2c1ccc(Cl)c2Oc1cccc(Cl)c1Cl` [Compound 1-50, 6-chloro-5-(2,3-dichlorophenoxy)-3-(((3-fluoropyridin-2-yl)methyl)amino)-4H-benzo[e][1,2,4]thiadiazine 1,1-dioxide] and `O=S1(=O)N=C(NCc2ncccc2F)Nc2c1ccc(Cl)c2Oc1ccccc1Cl` [Compound 1-43, 6-chloro-5-(2-chlorophenoxy)-3-(((3-fluoropyridin-2-yl)methyl)amino)-4H-benzo[e][1,2,4]thiadiazine 1,1-dioxide] cannot be ordered by IC50: < 100 nM for the first, < 100 nM for the second.

First: O=S1(=O)N=C(NCc2cccc(Cl)c2F)Nc2c1ccc(F)c2Oc1ccccc1Cl [Compound 1-25, 3-((3-chloro-2-fluorobenzyl)amino)-5-(2-chlorophenoxy)-6-fluoro-4H-benzo[e][1,2,4]thiadiazine 1,1-dioxide]
Second: O=S1(=O)N=C(NCc2ncccc2F)Nc2c1ccc(F)c2Oc1ccc(Cl)cc1Cl [Compound 1-16, 5-(2,4-dichlorophenoxy)-6-fluoro-3-(((3-fluoropyridin-2-yl)methyl)amino)-4H-benzo[e][1,2,4]thiadiazine 1,1-dioxide]
The IC50 of the first is lower: < 100 nM for the first, 100 to 500 nM for the second. The first is the more potent here.

`O=S1(=O)N=C(NCc2ncccc2F)Nc2c1ccc(F)c2Oc1ccc(F)cc1Cl` [Compound 1-18, 5-(2-chloro-4-fluorophenoxy)-6-fluoro-3-(((3-fluoropyridin-2-yl)methyl)amino)-4H-benzo[e][1,2,4]thiadiazine 1,1-dioxide] and `O=S1(=O)N=C(NCc2ncccc2F)Nc2c1ccc(F)c2Oc1cccc(F)c1Cl` [Compound 1-19, 5-(2-chloro-3-fluorophenoxy)-6-fluoro-3-(((3-fluoropyridin-2-yl)methyl)amino)-4H-benzo[e][1,2,4]thiadiazine 1,1-dioxide] cannot be ordered by IC50: < 100 nM for the first, < 100 nM for the second.

Compared with `O=S1(=O)N=C(NCc2ncccc2F)Nc2c1ccc(F)c2Oc1ccc(F)cc1` [Compound 2-7, 6-fluoro-5-(4-fluorophenoxy)-3-(((3-fluoropyridin-2-yl)methyl)amino)-4H-benzo[e][1,2,4]thiadiazine 1,1-dioxide], `CC(c1ccc(F)cc1)c1c(F)ccc2c1NC(NCc1ncccc1F)=NS2(=O)=O` (stereo not shown) [Compound 8-2, 6-fluoro-5-(1-(4-fluorophenyl)ethyl)-3-(((3-fluoropyridin-2-yl)methyl)amino)-4H-benzo[e][1,2,4]thiadiazine 1,1-dioxide] is lower in IC50: 100 to 500 nM for the first, < 100 nM for the second.

First: O=S1(=O)N=C(NCc2cnccc2C(F)(F)F)Nc2c1cc(F)c(F)c2Cc1ccccc1Cl [Compound 4-17, 5-(2-chlorobenzyl)-6,7-difluoro-3-(((4-(trifluoromethyl)pyridin-3-yl)methyl)amino)-4H-benzo[e][1,2,4]thiadiazine 1,1-dioxide]
Second: O=S1(=O)N=C(NCc2ncccc2F)Nc2c1cc(F)c(F)c2Oc1ccccc1Cl [Compound 1-5, 5-(2-chlorophenoxy)-6,7-difluoro-3-(((3-fluoropyridin-2-yl)methyl)amino)-4H-benzo[e][1,2,4]thiadiazine 1,1-dioxide]
The IC50 of the first is higher: 100 to 500 nM for the first, < 100 nM for the second. The second is the more potent here.

Compared with `O=S1(=O)N=C(NCc2ncccc2F)Nc2c1ccc(F)c2Oc1cccc(F)c1F` [Compound 1-40, 5-(2,3-difluorophenoxy)-6-fluoro-3-(((3-fluoropyridin-2-yl)methyl)amino)-4H-benzo[e][1,2,4]thiadiazine 1,1-dioxide], `O=S1(=O)N=C(NCc2ccc(F)c(F)c2)Nc2c(Cc3ccccc3Cl)cccc21` [Compound 12-14, 5-(2-chlorobenzyl)-3-((3,4-difluorobenzyl)amino)-4H-benzo[e][1,2,4]thiadiazine 1,1-dioxide] is lower in IC50: 100 to 500 nM for the first, < 100 nM for the second. The second is the more potent here.

Compared with `Cc1nn(C)cc1C(C)c1c(F)ccc2c1NC(NCc1cccc(F)c1)=NS2(=O)=O` (stereo not shown) [Compound 22-19, 5-(1-(1,3-dimethyl-1H-pyrazol-4-yl)ethyl)-6-fluoro-3-((3-fluorobenzyl)amino)-4H-benzo[e][1,2,4]thiadiazine 1,1-dioxide], `Cc1ccc(C(C)c2c(F)ccc3c2NC(NCc2cccc(F)c2)=NS3(=O)=O)cc1` (stereo not shown) [Compound 22-22, 6-fluoro-3-((3-fluorobenzyl)amino)-5-(1-(p-tolyl)ethyl)-4H-benzo[e][1,2,4]thiadiazine 1,1-dioxide] is higher in IC50: < 100 nM for the first, 100 to 500 nM for the second.

`O=C(c1ccccc1Cl)c1cccc2c1NC(NCc1ccccc1F)=NS2(=O)=O` [Compound 16-2, (2-chlorophenyl)(3-((2-fluorobenzyl)amino)-1,1-dioxido-4H-benzo[e][1,2,4]thiadiazin-5-yl)methanone] and `CC(c1c(F)ccc2c1NC(NCc1cccc(F)c1)=NS2(=O)=O)C1CCOCC1` (stereo not shown) [Compound 22-3, 6-fluoro-3-((3-fluorobenzyl)amino)-5-(1-(tetrahydro-2H-pyran-4-yl)ethyl)-4H-benzo[e][1,2,4]thiadiazine 1,1-dioxide] cannot be ordered by IC50: < 100 nM for the first, < 100 nM for the second.

For `CC(c1c(F)ccc2c1NC(NCc1cccc(F)c1)=NS2(=O)=O)C1CCCCC1` (stereo not shown) [Compound 22-5, 5-(1-cyclohexylethyl)-6-fluoro-3-((3-fluorobenzyl)amino)-4H-benzo[e][1,2,4]thiadiazine 1,1-dioxide], the IC50 was < 100 nM.
